Earlier results in patent publication US20110212461A1, “PREDICTION OF CARDIOTOXICITY” (priority 2010, published 2011).

Conditions: assessment positive or negative; marketed/external kinase inhibitors; from public literature and internal data
For C#Cc1cccc(Nc2ncnc3cc(OCCOC)c(OCCOC)cc23)c1 [Tarceva], the Cardiotoxicity is given as “Negative”. For Cc1cn(-c2cc(NC(=O)c3ccc(C)c(Nc4nccc(-c5cccnc5)n4)c3)cc(C(F)(F)F)c2)cn1 [Nilotinib], the Cardiotoxicity is listed as “Positive”. In the case of Cc1nc(Nc2ncc(C(=O)Nc3c(C)cccc3Cl)s2)cc(N2CCN(CCO)CC2)n1 [Sprycel, dasatinib], the Cardiotoxicity is given as “Positive”. In the case of COc1cc2c(Nc3ccc(Br)cc3F)ncnc2cc1OCC1CCN(C)CC1 [Zactima], the Cardiotoxicity is listed as “Positive”. For CS(=O)(=O)CCNCc1ccc(-c2ccc3ncnc(Nc4ccc(OCc5cccc(F)c5)c(Cl)c4)c3c2)o1 [Tykerb], the Cardiotoxicity is given as “Negative”. In the case of CCN(CC)CCNC(=O)c1c(C)[nH]c(/C=C2\C(=O)Nc3ccc(F)cc32)c1C [Sutent, sunitinib], the Cardiotoxicity is listed as “Positive”. In the case of CNC(=O)c1cc(Oc2ccc(NC(=O)Nc3ccc(Cl)c(C(F)(F)F)c3)cc2)ccn1 [Nexavar, sorafenib], the Cardiotoxicity is listed as “Positive”. In the case of COc1cc2ncnc(Nc3ccc(F)c(Cl)c3)c2cc1OCCCN1CCOCC1 [Iressa], the Cardiotoxicity is listed as “Negative”.
